Data from patent publication US9398761B2, “Transgenic animal model of mood disorders” (BRAINCO BIOPHARMA, S.L., priority 2012, dated 2016).
Entries after “also recorded” stand apart in the source; their conditions may differ.

Tested on: wild-type (WT) and PTN transgenic (TG) mice
Assay: Novelty Suppressed Feeding Test after chronic fluoxetine treatment
Assay type: in vivo, mouse
Conditions: 4 weeks; for Latency to feed, treated versus untreated: fluoxetine in drinking water 160 mg/l, one-way ANOVA on rank-transformed data
Experimental: Novelty suppressed feeding test assesses anxiety and/or depression by measuring the latency of an animal to approach and eat food in a novel environment following chronic treatment with antidepressants. Mice (WT=14 and TG=14) were separated in two experimental groups: Without fluoxetine treatment and with fluoxetine treatment. The Fluoxetine was delivered ad libitum in the drinking water at a concentration of 160 mg/l (approximately doses of 20-25 mg/kg/day) during 4 weeks. Mice were weighed and food was removed from their cage. Twenty four hr after removal of food, mice were transferred to the testing room, placed in a clean holding cage and allowed to habituate for at least 30 min. The testing apparatus consisted of a clear Plexiglas open-field (50×50×25 cm) under an aversive condition (100 lux luminosity). The floor was covered with 2 cm of corncob bedding. A small piece of mouse chow was placed in the center of the arena. At the start of the experiment, each mouse was placed in the corner of the testing area, and the time to the first feeding event was recorded. After all mice from a single cage were tested, mice were returned to their home cage. A longer latency to feed reflects an anxiety-like behaviour. […] Measurement of Latency to feed were rank-transformed (Conover and Iman, 1981) and subjected to a Two-way ANOVA having two levels of genotype (wild-type or WT and transgenic or TG) and two levels of treatment (without fluoxetine or −Flx and with fluoxetine or +Flx).

## CNCCC(Oc1ccc(C(F)(F)F)cc1)c1ccccc1 (stereo not shown) [Fluoxetine]
Novelty Suppressed Feeding Test, chronic treatment
  Sensitivity to the effect of fluoxetine, Tg compared with Wt: more sensitive
TG (PTN-overexpressing) mice
  Latency to feed, treated versus untreated: significant difference; also recorded: reversed
WT and TG mice, fluoxetine in drinking water 160 mg/l (approx. 20-25 mg/kg/day), with vs without fluoxetine
  Latency to feed, main effect of treatment (two-way ANOVA): significant
WT mice
  Latency to feed, treated versus untreated: No significant differences
